PubChem BioAssay (NCI)
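Growth conditions: 96-well plates. Treatment: test compound, 48 hours, 5 concentrations. Analysis: linear interpolation between bracketing concentrations; unreached endpoints set to highest concentration. Abbreviation: GI50, concentration required for 50% inhibition of growth. TGI: concentration producing complete growth inhibition.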

Experiments:
Assay in all cases: DTP human tumour cell line panel, 48 h
NCI-H460 lung = test system: NCI-H460 lung
MCF7 breast = test system: MCF7 breast
SNB-75 CNS = test system: SNB-75 CNS
NCI-H23 lung = test system: NCI-H23 lung
OVCAR-8 ovarian = test system: OVCAR-8 ovarian
SK-OV-3 ovarian = test system: SK-OV-3 ovarian
CCRF-CEM leukemia = test system: CCRF-CEM leukemia
SK-MEL-28 melanoma = test system: SK-MEL-28 melanoma
HOP-92 NSCLC = test system: HOP-92 NSCLC
U251 CNS = test system: U251 CNS
HOP-62 NSCLC = test system: HOP-62 NSCLC
OVCAR-4 ovarian = test system: OVCAR-4 ovarian
A549 NSCLC = test system: A549 NSCLC
UACC-62 melanoma = test system: UACC-62 melanoma
COLO 205 colon = test system: COLO 205 colon
SF-268 CNS = test system: SF-268 CNS
HL-60(TB) leukemia = test system: HL-60(TB) leukemia
UACC-257 melanoma = test system: UACC-257 melanoma
EKVX NSCLC = test system: EKVX NSCLC
RPMI-8226 leukemia = test system: RPMI-8226 leukemia
M14 melanoma = test system: M14 melanoma
A498 renal = test system: A498 renal
PC-3 prostate = test system: PC-3 prostate
HCC-2998 colon = test system: HCC-2998 colon
K-562 leukemia = test system: K-562 leukemia
786-0 renal = test system: 786-0 renal
SF-539 CNS = test system: SF-539 CNS
T-47D breast = test system: T-47D breast
TK-10 renal = test system: TK-10 renal
SF-295 CNS = test system: SF-295 CNS
IGROV1 ovarian = test system: IGROV1 ovarian
CAKI-1 renal = test system: CAKI-1 renal
NCI-H522 lung = test system: NCI-H522 lung
HCT-116 colon = test system: HCT-116 colon
ACHN renal = test system: ACHN renal
BT-549 breast = test system: BT-549 breast
SR leukemia = test system: SR leukemia
MDA-MB-231 breast = test system: MDA-MB-231 breast
SN12C renal = test system: SN12C renal
NCI/ADR-RES ovarian = test system: NCI/ADR-RES ovarian
RXF 393 renal = test system: RXF 393 renal
OVCAR-5 ovarian = test system: OVCAR-5 ovarian
SK-MEL-5 melanoma = test system: SK-MEL-5 melanoma
DU-145 prostate = test system: DU-145 prostate
SK-MEL-2 melanoma = test system: SK-MEL-2 melanoma
NCI-H226 lung = test system: NCI-H226 lung
HS 578T breast = test system: HS 578T breast
MALME-3M melanoma = test system: MALME-3M melanoma
LOX IMVI melanoma = test system: LOX IMVI melanoma
KM12 colon = test system: KM12 colon
SW-620 colon = test system: SW-620 colon
UO-31 renal = test system: UO-31 renal
SNB-19 CNS = test system: SNB-19 CNS
MDA-MB-435 = test system: MDA-MB-435
HT29 colon = test system: HT29 colon
HCT-15 colon = test system: HCT-15 colon
MOLT-4 leukemia = test system: MOLT-4 leukemia

CN(C)CCNC(=O)c1ccc(-c2nc3ccc4[nH]ncc4c3c3c2COCC3)cc1 was tested, and the GI50 (NCI-H460 lung) was 2200 nM, the TGI (NCI-H460 lung) was 5460 nM and the GI50 (MCF7 breast) was 293 nM. The TGI (MCF7 breast) was 7660 nM, the GI50 (SNB-75 CNS) was 382 nM and the TGI (SNB-75 CNS) was 1460 nM. It also gave a GI50 (NCI-H23 lung) of 1240 nM, a TGI (NCI-H23 lung) of 3310 nM and a GI50 (OVCAR-8 ovarian) of 1230 nM. It also gave a TGI (OVCAR-8 ovarian) of 11100 nM, a GI50 (SK-OV-3 ovarian) of 1060 nM and a TGI (SK-OV-3 ovarian) of 28500 nM. It also gave a GI50 (CCRF-CEM leukemia) of 374 nM, a TGI (CCRF-CEM leukemia) of 50400 nM and a GI50 (SK-MEL-28 melanoma) of 1280 nM. For the same compound, the TGI (SK-MEL-28 melanoma) was 3940 nM, the GI50 (HOP-92 NSCLC) was 1000 nM and the TGI (HOP-92 NSCLC) was 5860 nM. It also gave a GI50 (U251 CNS) of 659 nM, a TGI (U251 CNS) of 16300 nM and a GI50 (HOP-62 NSCLC) of 1100 nM. It also gave a TGI (HOP-62 NSCLC) of 4070 nM, a GI50 (OVCAR-4 ovarian) of 1850 nM and a TGI (OVCAR-4 ovarian) of 8910 nM. For the same compound, the GI50 (A549 NSCLC) was 3180 nM, the TGI (A549 NSCLC) was over 100000 nM and the GI50 (UACC-62 melanoma) was 767 nM. It also gave a TGI (UACC-62 melanoma) of 2570 nM, a GI50 (COLO 205 colon) of 480 nM and a TGI (COLO 205 colon) of 2050 nM. It also gave a GI50 (SF-268 CNS) of 292 nM, a TGI (SF-268 CNS) of 1820 nM and a GI50 (HL-60(TB) leukemia) of 1300 nM. For the same compound, the TGI (HL-60(TB) leukemia) was 4880 nM, the GI50 (UACC-257 melanoma) was 2410 nM and the TGI (UACC-257 melanoma) was 8170 nM. For the same compound, the GI50 (EKVX NSCLC) was 2170 nM, the TGI (EKVX NSCLC) was 12800 nM and the GI50 (RPMI-8226 leukemia) was 2170 nM. For the same compound, the TGI (RPMI-8226 leukemia) was 7310 nM, the GI50 (M14 melanoma) was 1370 nM and the TGI (M14 melanoma) was 3270 nM. The GI50 (A498 renal) was 1190 nM, the TGI (A498 renal) was 2810 nM and the GI50 (PC-3 prostate) was 1120 nM. The TGI (PC-3 prostate) was 8120 nM, the GI50 (HCC-2998 colon) was 1080 nM and the TGI (HCC-2998 colon) was 3240 nM. For the same compound, the GI50 (K-562 leukemia) was 740 nM, the TGI (K-562 leukemia) was over 100000 nM and the GI50 (786-0 renal) was 2050 nM. The TGI (786-0 renal) was 9430 nM, the GI50 (SF-539 CNS) was 512 nM and the TGI (SF-539 CNS) was 2210 nM. The GI50 (T-47D breast) was 750 nM, the TGI (T-47D breast) was over 100000 nM and the GI50 (TK-10 renal) was 1450 nM. The TGI (TK-10 renal) was 7130 nM, the GI50 (SF-295 CNS) was 3270 nM and the TGI (SF-295 CNS) was 16000 nM. The GI50 (IGROV1 ovarian) was 1280 nM, the TGI (IGROV1 ovarian) was 9200 nM and the GI50 (CAKI-1 renal) was 1200 nM. The TGI (CAKI-1 renal) was 12700 nM, the GI50 (NCI-H522 lung) was 188 nM and the TGI (NCI-H522 lung) was 372 nM. The GI50 (HCT-116 colon) was 367 nM, the TGI (HCT-116 colon) was 11300 nM and the GI50 (ACHN renal) was 2850 nM. For the same compound, the TGI (ACHN renal) was 21700 nM, the GI50 (BT-549 breast) was 624 nM and the TGI (BT-549 breast) was 2370 nM. For the same compound, the GI50 (SR leukemia) was 301 nM, the TGI (SR leukemia) was 2250 nM and the GI50 (MDA-MB-231 breast) was 791 nM. The TGI (MDA-MB-231 breast) was 5000 nM, the GI50 (SN12C renal) was 1000 nM and the TGI (SN12C renal) was 5400 nM. For the same compound, the GI50 (NCI/ADR-RES ovarian) was 24100 nM, the TGI (NCI/ADR-RES ovarian) was over 100000 nM and the GI50 (RXF 393 renal) was 239 nM. For the same compound, the TGI (RXF 393 renal) was 1040 nM, the GI50 (OVCAR-5 ovarian) was 3010 nM and the TGI (OVCAR-5 ovarian) was 28200 nM. The GI50 (SK-MEL-5 melanoma) was 2270 nM, the TGI (SK-MEL-5 melanoma) was 6210 nM and the GI50 (DU-145 prostate) was 1490 nM. For the same compound, the TGI (DU-145 prostate) was 8680 nM, the GI50 (SK-MEL-2 melanoma) was 360 nM and the TGI (SK-MEL-2 melanoma) was 1120 nM. It also gave a GI50 (NCI-H226 lung) of 1240 nM, a TGI (NCI-H226 lung) of 7140 nM and a GI50 (HS 578T breast) of 523 nM. For the same compound, the TGI (HS 578T breast) was 3580 nM, the GI50 (MALME-3M melanoma) was 786 nM and the TGI (MALME-3M melanoma) was 2690 nM. It also gave a GI50 (LOX IMVI melanoma) of 465 nM, a TGI (LOX IMVI melanoma) of 1850 nM and a GI50 (KM12 colon) of 955 nM. It also gave a TGI (KM12 colon) of 5260 nM, a GI50 (SW-620 colon) of 527 nM and a TGI (SW-620 colon) of 4880 nM. The GI50 (UO-31 renal) was 6750 nM, the TGI (UO-31 renal) was 62400 nM and the GI50 (SNB-19 CNS) was 587 nM. The TGI (SNB-19 CNS) was 7470 nM, the GI50 (MDA-MB-435) was 677 nM and the TGI (MDA-MB-435) was 2150 nM. The GI50 (HT29 colon) was 2050 nM, the TGI (HT29 colon) was 6990 nM and the GI50 (HCT-15 colon) was 10800 nM. For the same compound, the TGI (HCT-15 colon) was over 100000 nM, the GI50 (MOLT-4 leukemia) was 604 nM and the TGI (MOLT-4 leukemia) was 5210 nM.
